Values joined by “and” are separate entries in the source; they are usually repeats but may differ in a detail not shown here. Equal values may be shown once. Toxic doses and inconclusive results are not listed. No stated cut-off is given here; in the data, active means T/C of 150% or more; inactive means T/C below 125%.
Test system: L1210 leukemia ip in BDF1 mice, survival T/C
Assay: NCI In Vivo Anticancer Drug Screen. Data for tumor model L1210 Leukemia (intraperitoneal) in B6D2F1 (BDF1) mice
Details: endpoint: mean survival time, higher = longer survival
Method in brief: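 Mice bearing the transplanted tumor received compound or vehicle. Survival of the treated group was divided by that of the vehicle-treated control group to give the ratio.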

[1] = dose: 100.0 mg/kg/injection, schedule: Q01DX009 (ip), vehicle: Klucel (hydroxypropylcellulose) (HPC)
[2] = dose: 100.0 mg/kg/injection, schedule: Q04DX003 (ip), vehicle: Klucel (hydroxypropylcellulose) (HPC)
[3] = dose: 200.0 mg/kg/injection, schedule: Q01DX009 (ip), vehicle: Klucel (hydroxypropylcellulose) (HPC)
[4] = dose: 200.0 mg/kg/injection, schedule: Q04DX003 (ip), vehicle: Klucel (hydroxypropylcellulose) (HPC)
[5] = dose: 400.0 mg/kg/injection, schedule: Q04DX003 (ip), vehicle: Klucel (hydroxypropylcellulose) (HPC)
[6] = dose: 100.0 mg/kg/injection, schedule: Q01DX009 (ip), vehicle: saline
[7] = dose: 100.0 mg/kg/injection, schedule: Q04DX003 (ip), vehicle: saline
[8] = dose: 200.0 mg/kg/injection, schedule: Q04DX003 (ip), vehicle: saline
[9] = dose: 400.0 mg/kg/injection, schedule: Q04DX003 (ip), vehicle: saline

Measured: T/C

CCOC(=O)c1ccc(NCc2nnc3nc(N)[nH]c(=O)c3n2)cc1
inactive: dose: 50.0 mg/kg/injection, schedule: Q01DX001 (ip), vehicle: saline with Tween-80 102 % of control | dose: 100.0 mg/kg/injection, schedule: Q01DX001 (ip), vehicle: saline with Tween-80 96 % of control | dose: 200.0 mg/kg/injection, schedule: Q01DX001 (ip), vehicle: saline with Tween-80 98 % of control

CC/C(=C(\CC)c1ccc(OC)cc1)c1ccc(O)cc1
inactive: dose: 15.0 mg/kg/injection, schedule: Q01DX Z (sc), vehicle: steriod suspending solution 105 % of control | dose: 30.0 mg/kg/injection, schedule: Q01DX Z (sc), vehicle: steriod suspending solution 106 % of control | dose: 60.0 mg/kg/injection, schedule: Q01DX Z (sc), vehicle: steriod suspending solution 96 % of control and 103 % of control | dose: 90.0 mg/kg/injection, schedule: Q01DX Z (sc), vehicle: steriod suspending solution 103 % of control | dose: 135.0 mg/kg/injection, schedule: Q01DX Z (sc), vehicle: steriod suspending solution 102 % of control | dose: 200.0 mg/kg/injection, schedule: Q01DX001 (ip), vehicle: saline 96 % of control | dose: 200.0 mg/kg/injection, schedule: Q01DX Z (sc), vehicle: steriod suspending solution 100 % of control | dose: 250.0 mg/kg/injection, schedule: Q01DX015 (sc), vehicle: steriod suspending solution 97 % of control | dose: 400.0 mg/kg/injection, schedule: Q01DX001 (ip), vehicle: saline 104 % of control | dose: 500.0 mg/kg/injection, schedule: Q01DX015 (sc), vehicle: steriod suspending solution 93 % of control | dose: 750.0 mg/kg/injection, schedule: Q01DX015 (sc), vehicle: steriod suspending solution 95 % of control | dose: 800.0 mg/kg/injection, schedule: Q01DX001 (ip), vehicle: saline 98 % of control | dose: 1000.0 mg/kg/injection, schedule: Q01DX015 (sc), vehicle: steriod suspending solution 90 % of control

NNC(=O)Cc1nc2ccccc2[nH]c1=O
inactive: [1] 102 % of control | [2] 106 % of control | [3] 96 % of control | [4] 95 % of control | [5] 98 % of control

CC(C)C(=O)OCC1OC(n2cnc3c(=S)nc[nH]c32)C(OC(=O)C(C)C)C1OC(=O)C(C)C (stereo unspecified)
inactive: dose: 2.5 mg/kg/injection, schedule: Q01DX Z (oral), vehicle: carboxymethylcellulose (CMC) 101 % of control | dose: 5.0 mg/kg/injection, schedule: Q01DX Z (oral), vehicle: carboxymethylcellulose (CMC) 95 % of control | dose: 10.0 mg/kg/injection, schedule: Q01DX Z (oral), vehicle: carboxymethylcellulose (CMC) 97 % of control | dose: 20.0 mg/kg/injection, schedule: Q01DX Z (oral), vehicle: carboxymethylcellulose (CMC) 100 % of control

CSc1nc([N+](C)(C)C)cc([N+](C)(C)C)n1
inactive: dose: 6.0 mg/kg/injection, schedule: Q01DX Z (ip), vehicle: saline 91 % of control

CNC(=O)c1nc(C)c(C)nc1OCc1ccccc1
inactive: [6] 106 % of control | [7] 96 % of control | dose: 200.0 mg/kg/injection, schedule: Q01DX009 (ip), vehicle: saline 92 % of control | [8] 94 % of control | dose: 400.0 mg/kg/injection, schedule: Q01DX009 (ip), vehicle: saline 87 % of control | [9] 96 % of control

NC12CCCCC1(O)CCCC2 (stereo unspecified)
inactive: dose: 75.0 mg/kg/injection, schedule: Q01DX001 (ip), vehicle: saline 101 % of control | dose: 150.0 mg/kg/injection, schedule: Q01DX001 (ip), vehicle: saline 101 % of control | dose: 300.0 mg/kg/injection, schedule: Q01DX001 (ip), vehicle: saline 95 % of control

Nc1ccc(-c2ccccc2)cc1Br
inactive: dose: 15.0 mg/kg/injection, schedule: Q01DX001 (ip), vehicle: carboxymethylcellulose (CMC) 101 % of control | dose: 30.0 mg/kg/injection, schedule: Q01DX001 (ip), vehicle: carboxymethylcellulose (CMC) 96 % of control

CC(N)C(C)O (stereo unspecified)
inactive: [7] 96 % of control | [8] 101 % of control | [9] 101 % of control

C/C(=N\[N+](C)(C)C)c1ccc(Br)cc1
inactive: dose: 12.5 mg/kg/injection, schedule: Q04DX003 (ip), vehicle: saline 109 % of control | dose: 25.0 mg/kg/injection, schedule: Q01DX009 (ip), vehicle: saline 92 % of control | dose: 25.0 mg/kg/injection, schedule: Q04DX003 (ip), vehicle: saline 100 % of control | dose: 50.0 mg/kg/injection, schedule: Q01DX009 (ip), vehicle: saline 91 % of control | dose: 50.0 mg/kg/injection, schedule: Q04DX003 (ip), vehicle: saline 104 % of control | [6] 91 % of control | [7] 102 % of control

COC1OCC(N=[N+]=[N-])C(OC)C1O (stereo unspecified)
inactive: dose: 100.0 mg/kg/injection, schedule: Q04DX003 (ip), vehicle: saline with Tween-80 100 % of control | dose: 200.0 mg/kg/injection, schedule: Q04DX003 (ip), vehicle: saline with Tween-80 100 % of control | dose: 400.0 mg/kg/injection, schedule: Q04DX003 (ip), vehicle: saline with Tween-80 98 % of control

O=C1OC(=O)c2ccc([N+](=O)[O-])c3c([N+](=O)[O-])ccc1c23
inactive: dose: 100.0 mg/kg/injection, schedule: Q01DX009 (ip), vehicle: saline with Tween-80 88 % of control | dose: 200.0 mg/kg/injection, schedule: Q01DX009 (ip), vehicle: saline with Tween-80 95 % of control | dose: 400.0 mg/kg/injection, schedule: Q01DX009 (ip), vehicle: saline with Tween-80 91 % of control

OC(CC(O)(C(F)(F)Cl)C(F)(F)Cl)c1cccs1 (stereo unspecified)
inactive: [7] 93 % of control | [8] 95 % of control | [9] 105 % of control

CC(=O)Nc1ccc(N=Nc2ccccc2)cc1F
inactive: [1] 94 % of control | [2] 98 % of control | [3] 97 % of control | [4] 94 % of control | dose: 400.0 mg/kg/injection, schedule: Q01DX009 (ip), vehicle: Klucel (hydroxypropylcellulose) (HPC) 97 % of control | [5] 91 % of control

Cc1ccnc(NS(=O)(=O)c2ccc(N=Nc3c(N)[nH]c(=S)[nH]c3=O)cc2)n1
inactive: dose: 100.0 mg/kg/injection, schedule: Q01DX001 (ip), vehicle: carboxymethylcellulose (CMC) 97 % of control | dose: 200.0 mg/kg/injection, schedule: Q01DX001 (ip), vehicle: carboxymethylcellulose (CMC) 95 % of control | dose: 400.0 mg/kg/injection, schedule: Q01DX001 (ip), vehicle: carboxymethylcellulose (CMC) 95 % of control

CC[S][Hg][Cl]
inactive: dose: 3.0 mg/kg/injection, schedule: Q01DX009 (ip), vehicle: saline with Tween-80 92 % of control | dose: 6.0 mg/kg/injection, schedule: Q01DX009 (ip), vehicle: saline with Tween-80 101 % of control | dose: 12.5 mg/kg/injection, schedule: Q04DX003 (ip), vehicle: saline with Tween-80 101 % of control

Fc1c(F)c(F)c(Oc2c(F)c(F)c(F)c(F)c2Oc2c(F)c(F)c(F)c(F)c2F)c(F)c1F
inactive: dose: 10.0 mg/kg/injection, schedule: Q01DX009 (ip), vehicle: Klucel (hydroxypropylcellulose) (HPC) 96 % of control | dose: 25.0 mg/kg/injection, schedule: Q01DX009 (ip), vehicle: Klucel (hydroxypropylcellulose) (HPC) 96 % of control | dose: 37.5 mg/kg/injection, schedule: Q01DX009 (ip), vehicle: Klucel (hydroxypropylcellulose) (HPC) 98 % of control | dose: 150.0 mg/kg/injection, schedule: Q01DX009 (ip), vehicle: Klucel (hydroxypropylcellulose) (HPC) 97 % of control | dose: 300.0 mg/kg/injection, schedule: Q01DX009 (ip), vehicle: Klucel (hydroxypropylcellulose) (HPC) 99 % of control

Nc1ncccc1O
inactive: dose: 10.0 mg/kg/injection, schedule: Q01DX001 (ip), vehicle: saline 105 % of control | dose: 20.0 mg/kg/injection, schedule: Q01DX001 (ip), vehicle: saline 95 % of control | dose: 40.0 mg/kg/injection, schedule: Q01DX001 (ip), vehicle: saline 94 % of control
